Like-named read-outs stand apart in the source and are kept apart here.

One test can be described thus: DPPH assay. The procedure:
(§1) Total phenolic content was estimated using the Folin–Ciocalteu method as described in a previous study, while antioxidant activity was determined using two colorimetric methods, DPPH assay and FRAP assay. The analysis was performed as in the previous study.
A general note: The DPPH test is a chemical assay of radical scavenging.

The next test addresses T1, hyaluronidase (Bos taurus, UniProt Q2YDK3).
T1 sequence (Q2YDK3 36-553): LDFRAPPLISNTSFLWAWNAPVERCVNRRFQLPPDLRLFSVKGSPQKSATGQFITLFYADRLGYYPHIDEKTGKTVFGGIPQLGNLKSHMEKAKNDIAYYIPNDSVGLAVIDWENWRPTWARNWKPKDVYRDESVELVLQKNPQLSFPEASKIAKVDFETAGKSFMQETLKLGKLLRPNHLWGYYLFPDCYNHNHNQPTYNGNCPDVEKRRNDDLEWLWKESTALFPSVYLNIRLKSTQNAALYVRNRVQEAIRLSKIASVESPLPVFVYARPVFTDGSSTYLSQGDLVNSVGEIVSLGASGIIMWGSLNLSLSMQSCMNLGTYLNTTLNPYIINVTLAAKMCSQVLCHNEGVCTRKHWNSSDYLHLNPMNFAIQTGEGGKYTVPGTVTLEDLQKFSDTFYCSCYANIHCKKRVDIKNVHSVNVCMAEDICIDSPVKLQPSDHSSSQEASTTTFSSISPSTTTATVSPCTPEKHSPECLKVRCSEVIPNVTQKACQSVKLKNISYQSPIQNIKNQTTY
Description: Hyaluronidase inhibition. In kind it is biochemical. As to conditions: mean ± SD. As for the experimental part: The hyaluronidase inhibition assay was performed using hyaluronidase (1.5 mg/mL) and the substrate hyaluronic acid (1 mg/ml in 0.1 M acetate buffer; pH 3.5), according to a previous study. The reaction mixture was prepared consisting of 25 μL of CaCl2 (12.5 mM), 12.5 μL of each test sample (serial dilution), hyaluronidase (1.5 mg/mL), and 100 μL substrate hyaluronic acid. Afterwards, reaction mixture was placed in a water bath at 100°C for 3 min, and subsequently, 25 μL of 0.8 M KBO2 was added. After cooling to the room temperature, 800 μL DMAB (4 g DMAB in 40 mL acetic acid and 5 mL 10 N HCl) was added to the mixture following the incubation for 20 min. The absorbance was measured at 600 nm. Each measurement was made in triplicate. The percentage of hyaluronidase inhibition (%) was calculated according to the formula: inhibition (%) = [(Acontrol − Asample/Acontrol) × 100].
A sample: absorbance value of the hyaluronidase activity from samples or positive control (quercetin)
A control: absorbance value of the hyaluronidase activity from negative control (solution without samples)

The next test addresses mushroom tyrosinase (Agaricus bisporus, UniProt C7FF04). Nature of the test: Tyrosinase inhibition. It is filed as biochemical. As to conditions: mean ± SD. The procedure: This assay was performed using mushroom tyrosinase and L-DOPA as substrates, according to a previous study with slight modifications. […] After adding L-DOPA, the reaction mixture was monitored at 475 nm for dopachrome formation using a microplate reader (Costar, 96). Each measurement was made in triplicate. The percentage of tyrosinase inhibition (%) was calculated according to the formula: inhibition (%) = [(Acontrol − Asample/Acontrol) × 100]. […] A control: absorbance value of the tyrosinase activity from negative control (solution without samples)

Test [1] deals with Porcine pancreatic elastase (Sus scrofa, UniProt P00772). Description: Elastase inhibition. In kind it is biochemical. As for the experimental part: This assay was performed according to a previous study. Porcine pancreatic elastase was used in this assay at stock concentration of 3.33 mg/mL in sterile water. N-Succinyl-[…]-nitroanilide ([…]) was used as a substrate and dissolved in buffer to make up 1.6 mM solution. A serial dilution of the extract with amount of 50 μL each was incubated with the enzyme for 15 min, and the substrate was added subsequently and makes up the final reaction mixture of 250 μL. Absorbance value was measured at 400 nm using a microplate reader. Each measurement was made in triplicate. The percentage of elastase inhibition (%) was calculated according to the formula: inhibition (%) = [(Acontrol - Asample/Acontrol) × 100]. […] A control: absorbance value of the elastase activity from negative control (solution without samples)

Test [2] concerns the target Collagenase from Clostridium histolyticum. Description: Collagenase inhibition. In kind it is biochemical. To be noted: mean ± SD. As for the experimental part:
The assay was performed according to a previous study. Collagenase was obtained from Clostridium histolyticum (ChC—EC.3.4.23.3), and the assay was performed in 50 mM Tricine buffer consisting of 400 mM NaCl and 10 mM CaCl2 (pH 7.5). Collagenase was dissolved in the buffer to achieve an enzyme activity concentration of 0.8 unit/mL, and the synthetic substrate N-[3-(2-furyl) acryloyl]-Leu-Gly-Pro-Ala (FALGPA) was dissolved in the buffer to make up the final concentration of 2 mM. Serial diluted samples were incubated with the enzyme for 15 min. After that, the substrate was added to each serial solution. Absorbance was measured using a microplate reader (Costar, 96) at 490 nm. Each measurement was made in triplicate. Percentage of collagenase inhibition (%) was calculated according to the formula: inhibition (%) = [(Acontrol − Asample/Acontrol) × 100].
A sample: absorbance value of the collagenase activity from samples or positive control (quercetin)
A control: absorbance value of the collagenase activity from negative control (solution without samples)

A short description of a further test: FRAP assay. The procedure:
as §1

[3] abbreviates: mean ± SD, read-out: Elastase IC50 (converted).

Chain of Porcine pancreatic elastase (P00772 27-266): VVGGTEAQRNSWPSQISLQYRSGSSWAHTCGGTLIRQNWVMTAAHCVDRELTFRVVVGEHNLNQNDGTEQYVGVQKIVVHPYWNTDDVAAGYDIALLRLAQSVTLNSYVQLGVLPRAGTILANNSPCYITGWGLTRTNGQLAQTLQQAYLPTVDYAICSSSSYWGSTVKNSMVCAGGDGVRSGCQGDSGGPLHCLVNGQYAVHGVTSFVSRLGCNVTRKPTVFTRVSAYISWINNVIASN
Chain of mushroom tyrosinase (C7FF04 2-392): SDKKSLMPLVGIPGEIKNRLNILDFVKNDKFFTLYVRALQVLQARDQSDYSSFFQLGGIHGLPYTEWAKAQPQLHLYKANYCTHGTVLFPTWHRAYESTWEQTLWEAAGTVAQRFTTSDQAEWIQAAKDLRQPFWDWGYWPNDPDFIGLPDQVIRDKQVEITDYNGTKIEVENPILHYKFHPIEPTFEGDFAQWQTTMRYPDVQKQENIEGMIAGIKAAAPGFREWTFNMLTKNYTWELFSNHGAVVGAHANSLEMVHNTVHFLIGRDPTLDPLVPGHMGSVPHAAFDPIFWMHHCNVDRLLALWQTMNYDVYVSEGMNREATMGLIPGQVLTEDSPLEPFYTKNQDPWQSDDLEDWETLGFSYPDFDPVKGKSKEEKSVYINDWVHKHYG

With `O=C1O[C@H]([C@@H](O)CO)C(O)=C1O` [Ascorbic acid], the “DPPH (EC50)” value in the test “DPPH assay” turned out to be 2.92 ± 0.29 µg/mL.

`O.Oc1cc(O)c2c(c1)O[C@H](c1ccc(O)c(O)c1)[C@@H](O)C2` [Catechin]: on hyaluronidase, the “Hyaluronidase IC50” value is 22.99 ± 0.2 µg/mL. The “Tyrosinase IC50” value on mushroom tyrosinase was 22.54 ± 4.61 µg/mL. Moreover, the “Elastase IC50” value in test [1] (mean ± SD) came out at 15.00 ± 5.9 µg/mL. The “Collagenase IC50” value in test [2] was 29.33 ± 2.4 µg/mL.

Broadly, the IC50 is the concentration that gives 50% inhibition. Take `Oc1cc(O)c2c(c1)O[C@H](c1ccc(O)c(O)c1)[C@H](O)C2` [Epicatechin]: the IC50 in test [1] (setting [3]) is 145 µM. For the same molecule, in test [2], the “Collagenase IC50” value turned out to be 65.96 ± 7.8 µg/mL.

As to `O=c1cc(CO)occ1O` [Kojic acid, reference compound], half-maximal inhibition in test [1] (IC50) was put at 152 µM.

In the test “FRAP assay”, `O=c1c(O)c(-c2ccc(O)c(O)c2)oc2cc(O)cc(O)c12` [Quercetin] came in with an FRAP of 24.04 ± 1.23 mM FeSO4/mg extract.

Turning to `O=C(O)[C@]1(O)C[C@@H](O)[C@@H](O)[C@H](O)C1` [Quinic acid], the concentration for half-maximal inhibition (IC50) in test [1] (setting [3]) was 748 µM. The “Collagenase IC50” value in test [2] amounted to 52.78 ± 1.8 µg/mL.

Turning to `C[C@@H]1O[C@@H](OC[C@H]2O[C@@H](Oc3c(-c4ccc(O)c(O)c4)oc4cc(O)cc(O)c4c3=O)[C@H](O)[C@@H](O)[C@@H]2O)[C@H](O)[C@H](O)[C@H]1O` [Rutin], in test [1] (setting [3]), the IC50 is 199 µM. Besides, the “Collagenase IC50” value in test [2] was found to be 63.46 ± 3.4 µg/mL.

These data come from paper PMC8979739, “Phytochemical Profiling of the Leaf Extract of Ximenia americana var. caffra and Its Antioxidant, Antibacterial, and Antiaging Activities In Vitro and in Caenorhabditis elegans: A Cosmeceutical and Dermatological Approach” (Oxidative Medicine and Cellular Longevity, 2022).
